Experiments:
[1] = molecular target: Phospholipase A2, major isoenzyme, pancreatic (Sus scrofa) (UniProt P00592); assay: Inhibition of secretory PLA2 activity in porcine pancreas using [3H]-oleate labelled membranes at a concentration of 10 uM
[2] = Inhibition of secretory PLA2 activity in bee venom enzyme using [3H]oleate labelled membranes at a concentration of 10 uM
[3] = Inhibition of secretory PLA2 activity in Naja naja venom enzyme using [3H]oleate labelled membranes at a concentration of 10 uM

Phospholipase A2, major isoenzyme, pancreatic (Sus scrofa), sequence (P00592 whole entry, looked up): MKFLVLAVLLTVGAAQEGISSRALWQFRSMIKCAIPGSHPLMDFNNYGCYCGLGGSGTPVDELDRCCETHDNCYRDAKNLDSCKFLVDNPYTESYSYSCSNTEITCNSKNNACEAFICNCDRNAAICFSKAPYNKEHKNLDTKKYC

Row | Compound | IC50 [1] [nM] | IC50 [2] [µM] | IC50 [3] [µM]
1 | CCCCCCCCCCCCCCC(CO)NCC (stereo not given) [2-Ethylamino-hexadecan-1-ol] | 1400 | 6.1 | 
2 | CCCCCCCCCCCCCCC(N)CN(CC)CC (stereo not given) [N*1*,N*1*-Diethyl-hexadecane-1,2-diamine] | 3600 | 11 | 9.5

Source: BindingDB's records for doi:10.1016/s0960-894x(99)00680-0 (Univ. De Valencia, 2000)
